Legend:
[1] = tested on: MED12, TGFBR2 and TSP1 promoters; test: ChIP-qPCR, methylation profiling and QMSP in leiomyoma cells; assay type: cell-based, human; conditions: vs siCon
Experimental: gDNA was extracted from primary leiomyoma cells from one well of 24-well plates using Quick-gDNA MicroPrep (Zymo Research Corporation, Irvine, Calif.; D3021) according to the manufacturer's instructions. For bisulfite treatment, 200 ng of gDNA was used for each column using EZ DNA Methylation-Gold Kit (Zymo, D5006). 100 μl of elution buffer was used to elute gDNA from each column. Real-time quantitative PCR was performed in a 15 μl reaction containing 5 μl of the eluted gDNA using iQSYBRGreen (Bio-Rad, Hercules, Calif.; 1708880) in a Bio-Rad iCycler. Two sets of PCR primers were designed: one for unmethylated and one for methylated DNA sequences. The PCR primers for methylated DNA were used at a final concentration of 0.6 μM in each PCR reaction. PCR was performed by initial denaturation at 95° C. for 5 min, followed by 40 cycles of 30 sec at 95° C., 30 sec at 60° C., and 30 sec at 72° C. Specificity was verified by melting curve analysis and agarose gel electrophoresis. The threshold cycle (Ct) values of each sample were used in the post-PCR data analysis. The relative levels of methylated versus unmethylated DNA sequences are presented.
These experiments were performed as previously described (Zhou J et al., 2015, Nat Commun 6:10221) with minor modifications. Briefly, experiments were performed in a 10-cm plate scale using the Pierce Agarose ChIP Kit (Thermo Scientific, 26156) according to the manufacturer's instructions with minor modifications. Agarose beads were used to pre-bind overnight with antibodies against TET3 (Millipore Sigma, ABE290), H3K4me3 (Cell signaling, C42D8) and H3K27me3 (Cell signaling, C36B11). Preimmune IgG was used as a negative control. Cells were cross-linked with 1% formaldehyde at room temperature for 10 min, and the reaction was stopped by 1× glycine. ChIPs were carried out overnight at 4° C. Primers for the specific promoter regions of MED12, TGFBR2, and TSP1 (FIG. 16A) were used to amplify input and ChIP-purified DNA. The relative enrichments of the indicated DNA regions were calculated using the Percent Input Method according to the manufacturer's instructions and were normalized to % input. Data are presented after normalization against background IgG signals.

[2] = tested on: TGFB1, TSP1 and TGFBR2 promoters; test: ChIP-qPCR and QMSP in LX-2 cells; assay type: cell-based, human; conditions: 48 h, vs siCon
Experimental: The assays were carried out as previously described in (Zhou J et al., 2015, Nat Commun 6:10221; Zhong T et al., 2016, Oncogene 36:2345-2354) with minor modifications. Briefly, gDNA was extracted from LX-2 cells in 24-well plates using Quick-gDNA MicroPrep (Zymo Research Corporation, Irvine, Calif.; D3021). For bisulfite treatment using EZ DNA Methylation-Gold Kit (Zymo, D5006), 90-500 ng of gDNA was used per column and 20-40 μl of elution buffer was used to elute DNA from each column. qPCR was performed in a 15 μl reaction containing 5 μl of eluted DNA using iQSYBRGreen (Bio-Rad, Hercules, Calif.; 1708880) in a Bio-Rad iCycler. PCR was conducted by initial denaturation at 95° C. for 5 min, followed by 40 cycles of 30 sec at 95° C., 30 sec at 60° C., and 30 sec at 72° C. Two sets of PCR primers were designed: one for unmethylated and one for methylated DNA sequences. The PCR primers for methylated DNA were used at a final concentration of 0.6 μM in each PCR reaction. The relative levels of methylated versus unmethylated DNA sequences are presented.
These experiments were performed as previously described (Zhou J et al., 2015, Nat Commun 6:10221) with minor modifications. Briefly, experiments were performed in a 10-cm plate scale using Chromatin Prep Module Kit (Thermo, catalog number 26158) according to the manufacturer's instructions. Agarose beads were used to pre-bind overnight with antibodies against TET3 (Millipore Sigma, ABE290), H3K4me3 (Cell signaling, C42D8) and H3K27me3 (Cell signaling, C36B11). Preimmune IgG was used as a negative control. LX-2 cells were cross-linked with 1% formaldehyde at RT for 10 min and the reaction was stopped by 1× glycine. ChIPs were carried out overnight at 4° C. Primers (Table 1) for the specific promoter regions of TGFB1, TSP1, and TGFBR2 were used to amplify input and ChIP-purified DNA. The relative enrichments of the indicated DNA regions were calculated using the Percent Input Method according to the manufacturer's instructions and were normalized to % input. Data are presented after normalization against background IgG signals.

For “siTET3: TET3-specific siRNA (human), Ambion 4392420/s47239 (sense CAGCAACUCCUAGAACUGATT; antisense UCAGUUCUAGGAGUUGCUGGA; chemistry not given here)”, the “binding of TET3 to MED12, TGFBR2 and TSP1 promoters (ChIP-qPCR)” value ([1]; UtLM cells, 48 h) was “significantly reduced”, the “H3K4me3 association with promoters” value ([1]; UtLM cells) was “significantly decreased H3K4me3” and the “H3K27me3 association with promoters” value ([1]; UtLM cells) was “increased H3K27me3”. For the same substance, the “decrease of the ratios of H3K4me3/H3K27me3” value ([1]; UtLM cells) was 5-8 fold, the “methylation of CpGs within the CTRRs of MED12, TGFBR2 and TSP1 promoters” value ([1]; ht-UtLM genome-wide profiling, confirmed in UtLM by QMSP, 48 h) was “increased methylation of the CpGs within the CTRRs” and the “H3K4me3 association with promoters” value [2] was “significantly decreased H3K4me3”. The “H3K27me3 association with promoters” value [2] was “increased H3K27me3”, the “binding of TET3 to TGFB1, TSP1 and TGFBR2 promoters (ChIP-qPCR)” value [2] was “significantly reduced” and the “methylation in the CTRRs of TGFB1, TSP1 and TGFBR2 (QMSP)” value [2] was “increase in methylation in the CTRRs”. For the same substance, the “ratios of H3K4me3/H3K27me3” value [2] was “decreased significantly”.
